This passage reports logP results from the OPERA property sets (Mansouri et al. 2018).

With `CCc1ccc(C(=O)O)cc1`, the logP was 2.89. Consider `O=Cc1ccc(C(=O)O)cc1`, for which the lipophilicity (logP) amounted to 1.76. With `CN(C)c1ccc(C(=O)O)cc1`, the lipophilicity (logP) turned out to be 1.28.

Consider `NCc1ccc(C(=O)O)cc1`, for which the logP came out at 1.03. In the case of `CC(=O)Nc1cccc(C(=O)O)c1`, the logP was found to be 1.32. In turn, `O=C(O)c1cc(Cl)ccc1Cl` showed a lipophilicity (logP) of 2.82.

The compound `CCCc1ccc(C(=O)O)cc1` showed a logP of 3.42. Take `CCCOc1ccc(C(=O)O)cc1`: the log partition coefficient (logP) was determined as 3.09. The value for `[N-]=[N+]=Nc1ccc(C(=O)O)cc1` was 2.54; that for `O=C(O)c1ccc(Cl)c(Cl)c1` was 3.25.

For orientation: logP means a log measure of how a compound divides between an organic and an aqueous phase. A high value points to higher lipophilicity.
